Test results: PubChem BioAssay AID1329 (NMMLSC, 2008)
Activity calls are given as the source filed them. The rule behind the calls is not given here.

Target: Induced myeloid leukemia cell differentiation protein Mcl-1 (Homo sapiens) (UniProt Q07820)
Experiment: modulators of Bim peptide binding to Mcl-1, dose response, biochemical, bead-based flow cytometry, multiplexed, human (AID 1329)
Details: Bim peptide-Mcl-1 binding, MCF

Chain of Induced myeloid leukemia cell differentiation protein Mcl-1 (Homo sapiens) (Q07820 whole entry, looked up): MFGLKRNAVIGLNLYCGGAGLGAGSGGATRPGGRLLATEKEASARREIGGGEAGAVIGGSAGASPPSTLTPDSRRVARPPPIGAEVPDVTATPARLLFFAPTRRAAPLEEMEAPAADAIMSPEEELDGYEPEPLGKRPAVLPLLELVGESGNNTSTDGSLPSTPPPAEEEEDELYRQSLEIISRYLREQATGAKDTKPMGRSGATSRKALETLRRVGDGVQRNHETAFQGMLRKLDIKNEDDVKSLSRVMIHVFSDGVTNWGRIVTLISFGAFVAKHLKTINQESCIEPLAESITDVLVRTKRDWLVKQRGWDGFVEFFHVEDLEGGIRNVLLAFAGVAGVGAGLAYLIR

Row | Structure (SMILES) | percent span
1 | Clc1ccc2c(N/N=C/c3cccc(Br)c3)ccnc2c1 | inactive
2 | Cc1ccc(NC(=O)CSc2nc3ccccc3c(=O)n2CCCN2CCCCC2)cc1Cl | inactive
3 | Cc1sc2nc(C(C)C)nc(SCC(=O)N3c4ccccc4CC3C)c2c1C (centres undefined) | inactive
4 | O=C(O)C1=C[C@H](C2CC2)C[C@H](OCCCCO)O1 | inactive
5 | CCOc1ccccc1NC(=O)CSc1nnc2ccc(-c3cccnc3)nn12 | inactive
6 | O=C(Cc1ccc(-c2ccccc2)cc1)NC1CCCC1 | inactive
7 | COc1ccccc1Nc1nc(-c2c(C)nc3ncccn23)cs1 | inactive
8 | CCNCc1cc(Br)c(OCC(=O)Nc2ccccc2)c(OC)c1 | inactive
9 | Cc1cc(-c2nnc(CCC(=O)NC(C)c3cccc4ccccc34)o2)no1 (centres undefined) | inactive
10 | Cc1ccc(-c2cc(-c3ccc(C)o3)nc(N)c2C#N)cc1 | inactive
11 | COCCNC(=O)CN1CCC(NC(=O)Nc2ccccc2)CC1 | inactive
12 | CCNC(=S)Nc1ccc(OCC)cc1 | inactive
13 | O=C(NCc1ccccn1)c1ccc2nc(-c3ccco3)c(-c3ccco3)nc2c1 | inactive
14 | CCc1ccc(/C=C/C(=O)c2cc(Br)ccc(=O)c2O)cc1 | inactive
15 | CCOc1ccc(CNc2ccc(N3CCCC3)cc2)cc1 | inactive
16 | Cc1nc(NC(=O)CC(C)C)sc1-c1csc(Nc2ccc(Cl)cc2)n1 | inactive
17 | Cc1nnc(Sc2cc(NCCCO)c([N+](=O)[O-])c3nonc23)s1 | inactive
18 | COc1ccc(-n2cc(-c3ccc(OC)c(OC)c3)[nH]c2=S)cc1 | inactive
19 | COc1ccc(OCCNC(=O)c2ccccc2OCC(=O)N2CCCCC2)cc1 | inactive
20 | O=[N+]([O-])c1ccc(-c2cn(-c3ccc(Cl)cc3)c(=S)[nH]2)cc1 | inactive
21 | Cc1ccc2c(c1)c(C)c(C)n2CC(O)Cn1nc(C)c(Br)c1C (centres undefined) | inactive
22 | COc1cc(NC(=S)NC(=O)c2cc(C)cc(C)c2)ccc1NC(=O)c1cccs1 | inactive
23 | CCOC(=O)c1sc(N)c(C(=O)Nc2ccccc2OC)c1C | inactive
24 | COc1cc(/C=C2\CC/C(=C\c3cc(OC)c(O)c(OC)c3)C2=O)cc(OC)c1O | inactive
25 | O=C(CSc1ccc(-c2ccccc2)nn1)NCc1ccco1 | inactive
26 | O=[N+]([O-])c1ccc2[nH]nc(-c3ccccc3)c2c1 | inactive

Row | Structure (SMILES) | percent span
27 | Cc1cc(C)nc(/N=C(\N)N2CCc3ccccc32)n1 | inactive
28 | O=C(CSc1ccc2nnc(-c3ccncc3)n2n1)Nc1nccs1 | inactive
29 | CCn1c(SCC(=O)Nc2ccccc2-c2ccccc2)nnc1-c1ccoc1C | inactive
30 | CCOc1ccc2nc(SCC(=O)N3c4ccccc4Sc4ccccc43)c(C#N)cc2c1 | inactive
31 | COc1ccccc1NC(=O)CSc1nnc(-c2ccco2)n1Cc1ccco1 | inactive
32 | COC(=O)C1C2c3ccccc3OC1(C)N=c1s/c(=C/c3cnn(C)c3C)c(=O)n12 (centres undefined) | inactive
33 | COc1cc(/C=C2\S/C(=N/S(=O)(=O)c3ccccc3)NC2=O)c([N+](=O)[O-])cc1OC | inactive
34 | COc1ccc(C2CC(=O)C3=C(C2)Nc2ccccc2NC3c2coc3ccccc3c2=O)cc1OC (centres undefined) | inactive
35 | CCc1cccc(CC)c1-n1c(-c2cccnc2)n[nH]c1=S | inactive
36 | CC(=O)NC1=C(NC2CCS(=O)(=O)C2)C(=O)c2ccccc2C1=O (centres undefined) | inactive
37 | CC(C)=C1C(=O)NN(c2ccc(C)c(Cl)c2)C1=O | inactive
38 | Cc1ccc(NC2=C(Cl)C(=O)c3ccccc3C2=O)cc1 | inactive
39 | c1cncc(-c2nnc3n2N=C(c2cccs2)CS3)c1 | inactive
40 | Cn1c(CCNC(=O)C2CCCCC2)nc2cc(NC(=O)c3cccs3)ccc21 | inactive
41 | CCn1c(C)c(/C=N/Nc2nc3ccccc3s2)c2ccccc21 | inactive
42 | Brc1ccc2ncnc(Nc3ccc(N4CCOCC4)cc3)c2c1 | inactive
43 | CCOC(=O)C1(CC/C(C)=N\NC(N)=O)CC(C)(C)OC1=O (centres undefined) | inactive
44 | CC1CC2=C(NC(=S)NC2c2cccc(F)c2)/C(=C/c2cccc(F)c2)C1 (centres undefined) | inactive
45 | COc1ccc(NC(=O)c2cc(-c3ccc(C)o3)nc3ccccc23)cc1OC | inactive
46 | O=C1Nc2ccc([N+](=O)[O-])cc2OC1CCN1CCN(Cc2ccc3c(c2)OCO3)CC1 (centres undefined) | inactive
47 | O=C(Nc1ccncc1)c1cc2ccccc2o1 | inactive
48 | CCN(CC)c1ccc(NC(=O)c2cccc(C)c2)cc1S(=O)(=O)Nc1ccccc1OC | inactive
49 | Cc1c(Cc2ccccc2)sc(N)c1C(N)=O | inactive
50 | CCN1CCN(c2cc(C)c3cc(NC(=S)N4CC(C)CC(C)C4)ccc3n2)CC1 (centres undefined) | inactive
51 | Cc1ccc2nc3c(cc(C(N)=S)c(=N)n3CCCOC(C)C)c(=O)n2c1 | inactive
52 | N/C(=N\OC(=O)CCC1CCCC1)c1ccncc1 | inactive

Row | Structure (SMILES) | percent span
53 | CC(=O)OCCNc1cc(Sc2nc3ccccc3[nH]2)c2nonc2c1[N+](=O)[O-] | inactive
54 | CCOc1ccc(C(=O)Nc2nnc(NC(=S)Nc3ccccc3)s2)cc1 | inactive
55 | O=C(c1ccc(CNS(=O)(=O)c2ccc(Br)cc2)cc1)N1CCCC1 | inactive
56 | Cc1ccc(-c2cc(C(=O)OCC(=O)N(C)C3CCS(=O)(=O)C3)c3ccccc3n2)o1 (centres undefined) | inactive
57 | Cc1ccc(/C=C/C(=O)c2ccccc(=O)c2O)c(C)c1 | inactive
58 | CN1CCc2cccc3c2[C@H]1Cc1ccc(O)c(O)c1-3 | inactive
59 | O=C(N/N=C/c1ccc(-c2ccccc2[N+](=O)[O-])o1)c1cncc(Br)c1 | inactive
60 | O=C(CSc1nnc(-c2ccccc2)c(-c2ccccc2)n1)N1CCc2ccccc21 | inactive
61 | CCOC(=O)C1=C(CC)Nc2ccccc2N=C1NC(=O)c1ccc(S(=O)(=O)N2CCOCC2)cc1 | inactive
62 | CC(=O)NC(=O)Nc1sc(=S)n(C)c1C | inactive
63 | C=CCN1C(=O)/C(=C/c2ccsc2)SC1=S | inactive
64 | COc1ccc(N2C(=O)/C(=C/c3cccs3)NC2=S)cc1 | inactive
65 | Cc1cccc(-n2c(-c3ccncc3)n[nH]c2=S)c1 | inactive
66 | Cc1ccc(-c2nc3c(c(=O)[nH]c(=O)n3Cc3ccccc3)n2C)o1 | inactive
67 | CNC(CC(=O)c1ccc([N+](=O)[O-])cc1)C(Cl)(Cl)Cl (centres undefined) | inactive
68 | S=C(Nc1ccc(N2CCOCC2)cc1)Nc1ccc2nc(-c3ccco3)c(-c3ccco3)nc2c1 | inactive
69 | c1ccc(C2=Nc3cccc4cccc(c34)N2)cc1 | inactive
70 | COc1cc(C2Nc3cccc4cccc(c34)N2)cc(OC)c1O | inactive
71 | COc1cccc(N2CC(C(=O)Nc3nnc(SCC(=O)c4ccccc4)s3)CC2=O)c1 (centres undefined) | inactive
72 | O=C(c1cccc(Br)c1)N1CCN(c2cnn(-c3ccccc3)c(=O)c2Cl)CC1 | inactive
73 | COc1ccc(COC(=O)NNC(=O)c2ccccc2Cl)cc1 | inactive
74 | CCN(CC)c1ccc(NC(=O)c2ccccc2)cc1S(=O)(=O)Nc1ccccc1OC | inactive
75 | CCN1/C(=C/c2ccc3cc(C)cc(C)c3[n+]2CC)Sc2cc(C)ccc21 | inactive
76 | COc1ccc(/C=C2\SC(=O)NC2=S)cc1OC | inactive
77 | Cc1ccc(NN2C(=O)C=CC2=O)cc1 | inactive
78 | Cc1cc(N2CCN(C)CC2)nc2ccc(NC(=S)N3CCN(c4ccc(F)cc4)CC3)cc12 | inactive

Row | Structure (SMILES) | percent span
79 | CN1CCS/C1=C/C=C1/SC(=S)N(Cc2ccccc2)C1=O | inactive
80 | COc1ccc(CN(C)CC(=O)NC(C)c2ccccc2)c(OC)c1 (centres undefined) | inactive
81 | Cc1onc(-c2ccccc2Cl)c1C(=O)Nc1nn[nH]n1 | inactive
82 | S=c1[nH]cc(-c2ccccc2)n1-c1ccccc1Cl | inactive
83 | c1ccc2c(N3CCOCC3)nc(N3CCOCC3)nc2c1 | inactive
84 | CCOC(=O)CSC1=NC(=O)/C(=C/c2ccc(Br)cc2)S1 | inactive
85 | COC(=O)c1ccc(C)c(NC(=O)CCNC(=O)c2ccc([N+](=O)[O-])cc2)c1 | inactive
86 | CC(C)COC(=O)/C(C#N)=C/c1cn(Cc2ccccc2)c2ccccc12 | inactive
87 | CNc1ccc(Br)cc(C(=O)/C=C/c2cc(OC)ccc2OC)c1=O | inactive
88 | O=C(/C=C/c1c(F)cccc1Cl)Nc1ccncc1 | inactive
89 | CCOc1cccc(CNc2ccc(O)cc2)c1OCc1ccc(Cl)cc1 | inactive
90 | Fc1ccccc1/C=C1\CCCC2=C1NC(=S)NC2c1ccccc1F (centres undefined) | inactive
91 | Fc1ccc(Cn2nnnc2C(c2ccc(Cl)cc2)N2CCSCC2)cc1 (centres undefined) | inactive
92 | Cc1cc(N)ccc1N1CCCC1 | inactive
93 | CC(C)C(=O)N1CCN(c2ccc([N+](=O)[O-])cc2Cl)CC1 | inactive
94 | COCc1cc(CN2CCCC(CNC(=O)c3ccc(F)cc3)C2)ccc1OC (centres undefined) | inactive
95 | Cc1noc(C)c1CN1C(=O)NC(Cc2ccccc2)(Cc2ccccc2)C1=O | inactive
96 | O=C(O)CC/C(=C\c1cc([N+](=O)[O-])ccc1Cl)c1nc2ccccc2s1 | inactive
97 | O=c1nc2c(O)cccn2c2c1c(=O)[nH]c1ccccc12 | inactive
98 | COc1cc(N=c2ssnc2Cl)c(OC)cc1Cl | inactive
99 | CN(C)c1ccc(/C=C2/SC(=O)N(CCN=C3NS(=O)(=O)c4ccccc43)C2=O)cc1 | inactive
100 | Cc1cccc(N=C2NC(=O)/C(=C/C=C/c3ccco3)S2)c1C | inactive
101 | CC(C)NS(=O)(=O)c1ccc(OCC(=O)Nc2ccc(F)cc2)cc1 | inactive
102 | CNc1ccc(Br)cc(C(=O)/C=C/c2ccc(OC)cc2OC)c1=O | inactive
103 | Cc1ccc(-c2cc(C(=O)Nc3ccccc3C)c3ccccc3n2)o1 | inactive
104 | CCOc1ccccc1NC(=O)CSc1ccc2nnc(-c3cccnc3)n2n1 | inactive
